Laboratory results reported in paper PMC6744458, “A ribose-functionalized NAD^+ with unexpected high activity and selectivity for protein poly-ADP-ribosylation” (Nature Communications, 2019).

Legend:
Type in all cases: biochemical
[1] = biological target: T1, catalytic domain of human PARP5a (Homo sapiens, UniProt O95271); assay: automodification, click biotin labelling, streptavidin-HRP immunoblot; conditions: […] analogue, […] MgCl2, pH […]
T1 construct: gene TNKS; catalytic domain residues 1093-1327, C-terminal His6, E. coli BL21 (DE3)
T1 sequence (O95271 1093-1327): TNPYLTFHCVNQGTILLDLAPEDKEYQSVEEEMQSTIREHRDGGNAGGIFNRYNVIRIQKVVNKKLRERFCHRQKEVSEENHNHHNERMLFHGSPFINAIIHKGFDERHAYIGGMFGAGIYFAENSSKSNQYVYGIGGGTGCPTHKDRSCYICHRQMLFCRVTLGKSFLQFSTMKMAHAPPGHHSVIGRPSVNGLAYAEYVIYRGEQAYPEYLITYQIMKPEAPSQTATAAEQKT

[2] = biological target: T2, catalytic domain of human PARP10 (Homo sapiens, UniProt Q53GL7); assay: as above; conditions: […] analogue, […] MgCl2, pH […]
T2 construct: catalytic domain residues 809-1017, N-terminal His6, E. coli BL21 (DE3)
T2 sequence (Q53GL7 809-1017): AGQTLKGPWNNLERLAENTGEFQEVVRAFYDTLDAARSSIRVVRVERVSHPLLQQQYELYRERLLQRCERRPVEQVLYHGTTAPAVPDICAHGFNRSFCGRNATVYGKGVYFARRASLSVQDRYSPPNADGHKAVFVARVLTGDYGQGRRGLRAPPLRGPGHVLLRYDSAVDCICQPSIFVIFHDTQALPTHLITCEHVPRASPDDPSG

[3] = biological target: T3, human NRK1 (Homo sapiens, UniProt Q9NWW6); assay: HPLC conversion; conditions: […] NR6, […] ATP, […] MgCl2, pH […], room temperature
T3 construct: gene NMRK1; full length, C-terminal His6, pET-28a, E. coli BL21 (DE3)
T3 sequence (Q9NWW6 1-199): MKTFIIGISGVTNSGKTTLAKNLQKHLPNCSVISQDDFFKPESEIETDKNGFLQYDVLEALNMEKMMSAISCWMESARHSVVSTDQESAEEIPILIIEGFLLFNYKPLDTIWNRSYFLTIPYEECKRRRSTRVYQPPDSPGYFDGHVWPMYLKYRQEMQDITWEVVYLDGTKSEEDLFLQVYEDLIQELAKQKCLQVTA

Structure (SMILES)	automodification, click biotin labelling, streptavidin-HRP immunoblot [1]	automodification, click biotin labelling, streptavidin-HRP immunoblot [2]	HPLC conversion [3]
C#CCNc1ncnc2c1ncn2[C@@H]1O[C@H](COP(=O)(O)OP(=O)([O-])OC[C@H]2O[C@@H]([n+]3cccc(C(N)=O)c3)[C@H](O)[C@@H]2O)[C@@H](O)[C@H]1O [6-a-NAD^+, 6-alkyne-NAD^+]	6-a-NAD^+ and 2-a-NAD^+ that displayed strong automodification activities for both enzymes	6-a-NAD^+ and 2-a-NAD^+ that displayed strong automodification activities for both enzymes	
C#Cc1nc(N)c2ncn([C@@H]3O[C@H](COP(=O)(O)OP(=O)([O-])OC[C@H]4O[C@@H]([n+]5cccc(C(N)=O)c5)[C@H](O)[C@@H]4O)[C@@H](O)[C@H]3O)c2n1 [2-a-NAD^+, 2-alkyne-NAD^+]	6-a-NAD^+ and 2-a-NAD^+ that displayed strong automodification activities for both enzymes	6-a-NAD^+ and 2-a-NAD^+ that displayed strong automodification activities for both enzymes	
[N-]=[N+]=N[C@H]1[C@@H](O)[C@H]([n+]2cccc(C(N)=O)c2)O[C@@H]1CO [NR6]			NRK1 that could only catalyze conversion of NR5 and NR6
